{"source": "patent US20050228016A1", "about": "“TETRAHYDROQUINOLINES FOR MODULATING THE EXPRESSION OF EXOGENOUS GENES VIA AN ECDYSONE RECEPTOR COMPLEX” (priority 2002, published 2005)", "key": {"[1]": {"biological_target": "T1, GAL4AaEcR-DEF/VP16HsRXRβ-EF (Aedes aegypti, UniProt P49880)", "T1 construct": "expressed in transfected cells; host or cells: mouse NIH3T3 cells", "T1 sequence (P49880 405-776 limits assumed)": "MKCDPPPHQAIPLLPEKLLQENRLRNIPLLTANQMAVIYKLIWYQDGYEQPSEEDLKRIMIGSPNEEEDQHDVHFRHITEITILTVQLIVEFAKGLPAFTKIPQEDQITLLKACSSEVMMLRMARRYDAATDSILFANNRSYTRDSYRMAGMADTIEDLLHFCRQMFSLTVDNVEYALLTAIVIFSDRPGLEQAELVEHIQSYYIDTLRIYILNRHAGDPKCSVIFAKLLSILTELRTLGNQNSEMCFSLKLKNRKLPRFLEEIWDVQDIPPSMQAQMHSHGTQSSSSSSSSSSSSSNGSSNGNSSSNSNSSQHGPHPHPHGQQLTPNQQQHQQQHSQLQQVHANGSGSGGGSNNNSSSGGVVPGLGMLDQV", "T1 sequence (P28702 299-533 partner limits assumed)": "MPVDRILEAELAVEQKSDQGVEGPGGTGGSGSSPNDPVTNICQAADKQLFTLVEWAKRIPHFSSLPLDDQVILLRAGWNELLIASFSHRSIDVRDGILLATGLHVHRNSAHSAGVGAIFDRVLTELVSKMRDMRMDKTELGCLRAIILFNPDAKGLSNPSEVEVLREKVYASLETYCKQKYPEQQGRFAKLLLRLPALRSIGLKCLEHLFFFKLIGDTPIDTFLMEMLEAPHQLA", "experiment": "Transactivation reporter assay, AaEcR based switch (1.4) in NIH3T3 cells", "type": "cell-based", "conditions": "mammalian cells; FIGS. 2-5", "protocol": "Total relative light units (RLU) are shown.\nTwenty μl of lysate were assayed."}, "[2]": {"biological_target": "T2, Bombyx mori EcR (VP16-BmEcR, CVBE) (Bombyx mori, UniProt P49881)", "T2 construct": "expressed in transfected cells", "T2 sequence (P49881 86-606)": "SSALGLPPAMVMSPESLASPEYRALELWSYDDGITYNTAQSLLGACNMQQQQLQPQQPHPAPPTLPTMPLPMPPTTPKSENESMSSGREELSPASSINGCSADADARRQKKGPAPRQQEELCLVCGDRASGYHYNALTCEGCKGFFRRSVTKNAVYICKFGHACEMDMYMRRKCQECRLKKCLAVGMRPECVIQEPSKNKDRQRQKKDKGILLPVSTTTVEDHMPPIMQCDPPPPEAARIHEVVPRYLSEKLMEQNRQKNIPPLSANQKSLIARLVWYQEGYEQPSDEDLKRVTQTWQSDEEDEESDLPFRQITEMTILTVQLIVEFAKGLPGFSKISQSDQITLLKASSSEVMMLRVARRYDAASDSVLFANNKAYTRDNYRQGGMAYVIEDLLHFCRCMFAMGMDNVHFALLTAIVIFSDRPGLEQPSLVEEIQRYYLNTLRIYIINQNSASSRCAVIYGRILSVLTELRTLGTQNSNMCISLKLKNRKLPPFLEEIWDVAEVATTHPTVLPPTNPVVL", "experiment": "Z3 assay (HEK-293 clone Z3 with CVBE and 6x EcRE LacZ, β-galactosidase reporter)", "type": "cell-based", "conditions": "48 h, average of two wells"}, "[3]": {"tested_on": "GAL4 DBD-CfEcR(DEF)/VP16AD-MmRXRE", "conditions": "CHO 13B3 clone, 48 h, average of two wells", "in_short": "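CHO 13B3 clone stably expressing GAL4 DBD-CfEcR(DEF) and VP16AD-MmRXRE with GAL4 RE-luciferase reporter; ligands from DMSO stocks diluted 300-fold. Luciferase read 48 h after treatment; duplicate wells averaged, fold induction = RLU ligand-treated / RLU DMSO-treated.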"}}}
{"smiles": "C[C@H]1C[C@H](Nc2ccc(F)cc2)c2cc(F)ccc2N1C(=O)c1ccc(F)c(C(F)(F)F)c1", "note": "(relative stereo) [Compound I-5]", "values": [{"measurement": "Activity on AaEcR based switches", "setting": "[1]", "value": "very active"}, {"measurement": "Fold Induction Average, Z3V1 Assay 33 μM", "setting": "[2]", "value": 96, "unit": "fold"}, {"measurement": "Fold Induction Average, 13B3V1 Assay 33 μM", "setting": "[3]", "value": 1, "unit": "fold"}]}
